In US20240043427A1 (Gilead Sciences, Inc., priority 2020, published 2024):
pEC50, pIC50: −log10 of the molar value.

Assays:
CD73 [1] = target: T1, CD73 (Homo sapiens (Human), UniProt P21589); assay: MDA-MB-231 Cell Based CD73 Activity Assay (DMEM); conditions: MDA-MB-231-GFP cells, DMEM medium with 10% human plasma, 200 uM AMP
CD73 [2] = target: T1, CD73; type: biochemical; conditions: 1 mM NaH2PO4 in enzyme buffer, CD73 0.3 nM, AMP 15 uM

T1 sequence (P21589 27-574): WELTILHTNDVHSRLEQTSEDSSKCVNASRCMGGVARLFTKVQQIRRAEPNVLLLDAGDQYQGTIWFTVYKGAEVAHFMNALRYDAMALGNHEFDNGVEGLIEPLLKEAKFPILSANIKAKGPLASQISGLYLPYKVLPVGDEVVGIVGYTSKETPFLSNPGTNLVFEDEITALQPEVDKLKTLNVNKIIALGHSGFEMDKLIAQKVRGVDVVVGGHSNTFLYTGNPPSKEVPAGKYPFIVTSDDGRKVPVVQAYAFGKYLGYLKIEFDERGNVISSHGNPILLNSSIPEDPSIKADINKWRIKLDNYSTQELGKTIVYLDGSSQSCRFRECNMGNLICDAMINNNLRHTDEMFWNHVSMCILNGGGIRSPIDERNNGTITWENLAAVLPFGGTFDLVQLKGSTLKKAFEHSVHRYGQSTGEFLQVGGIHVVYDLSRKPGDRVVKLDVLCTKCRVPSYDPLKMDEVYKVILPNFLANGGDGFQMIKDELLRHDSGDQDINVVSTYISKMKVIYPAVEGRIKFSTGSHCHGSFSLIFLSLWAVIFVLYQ

| SMILES | pEC50 (CD73 [1]) | pIC50 (CD73 [2]) |
| --- | --- | --- |
| O=c1[nH]cc(-c2cc(-c3cnn(C(F)F)c3)c3nccn3n2)c(=O)[nH]1 [Example 509, 5-(8-(1-(difluoromethyl)-1H-pyrazol-4-yl)imidazo[1,2-b]pyridazin-6-yl)pyrimidine-2,4(1H,3H)-dione] | 7.05 | 7.31 |
| O=c1[nH]cc(-c2cc([C@H]3C[C@@H]3c3ccc4cncc(OCC(F)(F)F)c4c3)c3nccn3n2)c(=O)[nH]1 [Example 710, 5-(8-((1S,2S)-2-(4-(2,2,2-trifluoroethoxy)isoquinolin-6-yl)cyclopropyl)imidazo[1,2-b]pyridazin-6-yl)pyrimidine-2,4(1H,3H)-dione] | 8.39 | 8.84 |
| O=c1[nH]cc(-c2cc(N3CCC(C4CC4)C3)c3nccn3n2)c(=O)[nH]1 (stereo not drawn) [Example 577, 5-(8-(3-cyclopropylpyrrolidin-1-yl)imidazo[1,2-b]pyridazin-6-yl)pyrimidine-2,4(1H,3H)-dione] | 7.09 | 7.71 |
| O=c1[nH]cc(-c2cc(N3CCC4(CCOC4)C3)c3nccn3n2)c(=O)[nH]1 (stereo not drawn) [Example 274, 5-(8-(2-oxa-7-azaspiro[4.4]nonan-7-yl)imidazo[1,2-b]pyridazin-6-yl)pyrimidine-2,4(1H,3H)-dione] | 7.40 | 7.78 |
| O=c1[nH]cc(-c2cc([C@H]3C[C@@H]3c3ccc4cnn(CC(F)F)c4c3F)c3nccn3n2)c(=O)[nH]1 [Example 129, 5-(8-((1S,2S)-2-(1-(2,2-difluoroethyl)-7-fluoro-1H-indazol-6-yl)cyclopropyl)imidazo[1,2-b]pyridazin-6-yl)pyrimidine-2,4(1H,3H)-dione] | 9.52 | 8.95 |
| C[C@H]1CN(c2cc(-c3c[nH]c(=O)[nH]c3=O)nn3c(F)cnc23)CC1(F)F [Example 518, (S)-5-(8-(3,3-difluoro-4-methylpyrrolidin-1-yl)-3-fluoroimidazo[1,2-b]pyridazin-6-yl)pyrimidine-2,4(1H,3H)-dione] | 7.71 | 8.26 |
| O=c1[nH]cc(-c2cc(N3CC(F)(F)C4(CCC4)C3)c3nccn3n2)c(=O)[nH]1 [Example 325, 5-(8-(8,8-difluoro-6-azaspiro[3.4]octan-6-yl)imidazo[1,2-b]pyridazin-6-yl)pyrimidine-2,4(1H,3H)-dione] | 7.95 | 8.77 |
| O=c1[nH]cc(-c2cc([C@H]3C[C@@H]3c3cnc(C(F)(F)F)nc3)c3nccn3n2)c(=O)[nH]1 [Example 272, 5-(8-((1S,2S)-2-(2-(trifluoromethyl)pyrimidin-5-yl)cyclopropyl)imidazo[1,2-b]pyridazin-6-yl)pyrimidine-2,4(1H,3H)-dione] | 7.14 | 8.00 |
| O=c1[nH]cc(-c2cc([C@H]3C[C@@H]3c3ccc4ncsc4c3)c3ncc(F)n3n2)c(=O)[nH]1 (racemic) [Example 581, 5-(8-((1S,2S)-2-(benzo[d]thiazol-6-yl)cyclopropyl)-3-fluoroimidazo[1,2-b]pyridazin-6-yl)pyrimidine-2,4(1H,3H)-dione] | 8.67 | 9.05 |
| O=c1[nH]cc(-c2cc(N3CC(F)(F)C4(CC4)C3)n3nccc3n2)c(=O)[nH]1 [Example 350, 5-(7-(7,7-difluoro-5-azaspiro[2.4]heptan-5-yl)pyrazolo[1,5-a]pyrimidin-5-yl)pyrimidine-2,4(1H,3H)-dione] | 7.00 | 7.92 |
| N#Cc1ccc([C@H]2C[C@@H]2c2cc(-c3c[nH]c(=O)[nH]c3=O)nn3ccnc23)c(F)c1F [Example 558, 4-((1S,2S)-2-(6-(2,4-dioxo-1,2,3,4-tetrahydropyrimidin-5-yl)imidazo[1,2-b]pyridazin-8-yl)cyclopropyl)-2,3-difluorobenzonitrile] | 7.69 | 8.54 |
| O=c1[nH]cc(-c2cc([C@H]3C[C@@H]3c3ccccn3)c3nccn3n2)c(=O)[nH]1 [Example 159, 5-(8-((1S,2S)-2-(pyridin-2-yl)cyclopropyl)imidazo[1,2-b]pyridazin-6-yl)pyrimidine-2,4(1H,3H)-dione] | 8.58 | 8.75 |
| CC(C)NC(=O)C(F)(F)C1CCN(c2cc(-c3c[nH]c(=O)[nH]c3=O)nn3ccnc23)C1 (stereo not drawn) [Example 662, 2-(1-(6-(2,4-dioxo-1,2,3,4-tetrahydropyrimidin-5-yl)imidazo[1,2-b]pyridazin-8-yl)pyrrolidin-3-yl)-2,2-difluoro-N-isopropylacetamide] | 7.05 | 7.72 |
| O=C(OC1CN(c2cc(-c3c[nH]c(=O)[nH]c3=O)nn3ccnc23)CC1(F)F)N1CC(F)(F)C1 (stereo not drawn) [Example 536, 1-(6-(2,4-dioxo-1,2,3,4-tetrahydropyrimidin-5-yl)imidazo[1,2-b]pyridazin-8-yl)-4,4-difluoropyrrolidin-3-yl 3,3-difluoroazetidine-1-carboxylate] | 8.30 | 8.42 |
| Cc1ccc(NC(=O)O[C@H]2CN(c3cc(-c4c[nH]c(=O)[nH]c4=O)nn4ccnc34)CC2(F)F)c(F)c1 [Example 236, (S)-1-(6-(2,4-dioxo-1,2,3,4-tetrahydropyrimidin-5-yl)imidazo[1,2-b]pyridazin-8-yl)-4,4-difluoropyrrolidin-3-yl (2-fluoro-4-methylphenyl)carbamate] | 8.52 | 8.99 |
| O=c1[nH]cc(-c2cc([C@H]3C[C@@H]3c3ccc(Cl)cn3)c3nccn3n2)c(=O)[nH]1 [Example 585, 5-(8-((1S,2S)-2-(5-chloropyridin-2-yl)cyclopropyl)imidazo[1,2-b]pyridazin-6-yl)pyrimidine-2,4(1H,3H)-dione] | 8.72 | 9.16 |
| COC[C@H](C)NC(=O)O[C@H]1CN(c2cc(-c3c[nH]c(=O)[nH]c3=O)nn3ccnc23)CC1(F)F [Example 549, (S)-1-(6-(2,4-dioxo-1,2,3,4-tetrahydropyrimidin-5-yl)imidazo[1,2-b]pyridazin-8-yl)-4,4-difluoropyrrolidin-3-yl ((S)-1-methoxypropan-2-yl)carbamate] | 9.55 | 9.00 |
| CC1(C)CN(c2cc(-c3c[nH]c(=O)[nH]c3=O)nn3cc(Cl)nc23)CC1(F)F [Example 328, 5-(2-chloro-8-(3,3-difluoro-4,4-dimethylpyrrolidin-1-yl)imidazo[1,2-b]pyridazin-6-yl)pyrimidine-2,4(1H,3H)-dione] | 7.39 | 8.43 |
| C[C@H](NC(=O)O[C@H]1CN(c2cc(-c3c[nH]c(=O)[nH]c3=O)nn3ccnc23)CC1(F)F)C(F)(F)F [Example 547, (S)-1-(6-(2,4-dioxo-1,2,3,4-tetrahydropyrimidin-5-yl)imidazo[1,2-b]pyridazin-8-yl)-4,4-difluoropyrrolidin-3-yl ((S)-1,1,1-trifluoropropan-2-yl)carbamate] | 9.89 | 9.51 |
| O=C(OCC(F)(F)F)O[C@@H]1CN(c2cc(-c3c[nH]c(=O)[nH]c3=O)nn3ccnc23)CC1(F)F [Example 543, (R)-1-(6-(2,4-dioxo-1,2,3,4-tetrahydropyrimidin-5-yl)imidazo[1,2-b]pyridazin-8-yl)-4,4-difluoropyrrolidin-3-yl (2,2,2-trifluoroethyl) carbonate] | 7.76 | 8.84 |
| O=c1[nH]cc(-c2cc([C@H]3C[C@@H]3c3ccc4nc5n(c4c3)[C@@H](C(F)(F)F)CC5)c3nccn3n2)c(=O)[nH]1 [Example 640, 5-(8-((1S,2S)-2-((R)-1-(trifluoromethyl)-2,3-dihydro-1H-benzo[d]pyrrolo[1,2-a]imidazol-7-yl)cyclopropyl)imidazo[1,2-b]pyridazin-6-yl)pyrimidine-2,4(1H,3H)-dione] | 9.92 | 8.80 |
| O=c1[nH]cc(-c2cc([C@H]3C[C@@H]3c3ccc4nc(C(F)(F)F)n(CC(F)(F)F)c4c3)c3nccn3n2)c(=O)[nH]1 (racemic) [Example 603, 5-(8-((1S,2S)-2-(1-(2,2,2-trifluoroethyl)-2-(trifluoromethyl)-1H-benzo[d]imidazol-6-yl)cyclopropyl)imidazo[1,2-b]pyridazin-6-yl)pyrimidine-2,4(1H,3H)-dione] | 10.05 | 8.71 |
| O=c1[nH]cc(-c2cc([C@H]3C[C@@H]3c3cc4c(ccn4CC(F)(F)F)cn3)c3nccn3n2)c(=O)[nH]1 [Example 705, 5-(8-((1S,2S)-2-(1-(2,2,2-trifluoroethyl)-1H-pyrrolo[3,2-c]pyridin-6-yl)cyclopropyl)imidazo[1,2-b]pyridazin-6-yl)pyrimidine-2,4(1H,3H)-dione] | 10.15 | 9.40 |
| O=c1[nH]cc(-c2cc(N3C[C@H](Oc4ccc(C(F)(F)F)cn4)C(F)(F)C3)c3nccn3n2)c(=O)[nH]1 [Example 529, (S)-5-(8-(3,3-difluoro-4-((5-(trifluoromethyl)pyridin-2-yl)oxy)pyrrolidin-1-yl)imidazo[1,2-b]pyridazin-6-yl)pyrimidine-2,4(1H,3H)-dione] | 8.65 | 9.15 |
| CC(C)NC(=O)CCC(F)(F)COc1cc(-c2c[nH]c(=O)[nH]c2=O)nn2ccnc12 [Example 457, 5-((6-(2,4-dioxo-1,2,3,4-tetrahydropyrimidin-5-yl)imidazo[1,2-b]pyridazin-8-yl)oxy)-4,4-difluoro-N-isopropylpentanamide] | 8.01 | 8.45 |
| CC1(C)C(=O)N(CC(F)(F)F)c2cc([C@H]3C[C@@H]3c3cc(-c4c[nH]c(=O)[nH]c4=O)nn4c(F)cnc34)cnc21 [Example 723, 5-[8-[(1S,2S)-2-[3,3-dimethyl-2-oxo-1-(2,2,2-trifluoroethyl)pyrrolo[3,2-b]pyridin-6-yl]cyclopropyl]-3-fluoro-imidazo[1,2-b]pyridazin-6-yl]-1H-pyrimidine-2,4-dione] | 8.98 | 8.56 |
| O=c1[nH]cc(-c2cc([C@H]3C[C@@H]3c3ccc(OC(F)F)nc3)c3ncc(F)n3n2)c(=O)[nH]1 [Example 122, 5-(8-((1S,2S)-2-(6-(difluoromethoxy)pyridin-3-yl)cyclopropyl)-3-fluoroimidazo[1,2-b]pyridazin-6-yl)pyrimidine-2,4(1H,3H)-dione] | 7.95 | 8.62 |
